Test system: Plasmodium berghei
Assay: Luciferase/luciferin-expressing antifolate-resistant parasites were used to infect a culture of HepG2 cells that were pre-incubated with compounds. Infected hepatocytes emit light due to the luciferase reaction. Assay results are presented as the percent inhibition of light emission compared to control. […]
Format: functional
Details: sporozoite; for IC90: read-out: LUCIFERASE INFECTION ASSAY - IC90
[1] = PBLUC_HILL_SLOPE 1, PBLUC_R_SQUARED 0.439, read-out: LUCIFERASE INFECTION ASSAY - IC50

Cc1ccc2c(Cl)cc(Cl)c(OCC(=O)N(C(C)C)C(C)C)c2n1
IC50 (PBLUC_HILL_SLOPE 0.984, PBLUC_R_SQUARED 0.0595, read-out: LUCIFERASE INFECTION ASSAY - IC50): > 10 µM
IC90: > 10 µM

CC(=O)c1c(C)[nH]c(C(=O)OCCOc2ccccc2)c1C
IC50 (PBLUC_HILL_SLOPE 1.04, PBLUC_R_SQUARED 0.638, read-out: LUCIFERASE INFECTION ASSAY - IC50): 1.81 µM
IC90: > 10 µM

CC(C)(C)NCc1cc(Cl)ccc1OCc1ccccc1F
IC50 (PBLUC_HILL_SLOPE 1.1, PBLUC_R_SQUARED 0.254, read-out: LUCIFERASE INFECTION ASSAY - IC50): 4.67 µM
IC90: > 9.21 µM

CCOCc1c(C(=O)Nc2ccccc2N2CCN(C)CC2)oc2ccccc12
IC50 (PBLUC_HILL_SLOPE 0.969, 2.85, PBLUC_R_SQUARED 0.516, 0.696, read-out: LUCIFERASE INFECTION ASSAY - IC50): 2.83 µM
IC90: 7.05 µM

CC(C)c1ccccc1NC(=O)Nc1nc(C(N)Cc2ccc(C(F)(F)F)cc2)cs1 (configuration not stated)
IC50 (PBLUC_HILL_SLOPE 1.06, PBLUC_R_SQUARED 0.663, read-out: LUCIFERASE INFECTION ASSAY - IC50): 1.89 µM
IC90: > 7.36 µM

NC(Cc1ccc(Cl)cc1)c1csc(Nc2nncc3ccccc23)n1 (configuration not stated)
IC50 (PBLUC_HILL_SLOPE 1.01, PBLUC_R_SQUARED 0.151, read-out: LUCIFERASE INFECTION ASSAY - IC50): 5.44 µM
IC90: > 8.64 µM

Cc1nn(Cc2ccc(C(=O)NC3CC3)cc2)c(C)c1[N+](=O)[O-]
IC50 (PBLUC_HILL_SLOPE 1.06, PBLUC_R_SQUARED 0.0833, read-out: LUCIFERASE INFECTION ASSAY - IC50): > 10 µM
IC90: > 10 µM

NC(=O)c1nc[nH]c1NC(=O)Cc1ccc(-c2ccccc2)cc1
IC50 (PBLUC_HILL_SLOPE 1, PBLUC_R_SQUARED 0.17, read-out: LUCIFERASE INFECTION ASSAY - IC50): > 10 µM
IC90: > 10 µM

CC(=O)c1ccc(NC(=O)CCn2nnc(-c3ccc(C(C)C)cc3)n2)cc1
IC50 [1]: 6.32 µM
IC90: > 10 µM

CCOC(=O)c1cc(-c2ccc(OC)cc2)nn1-c1cccc(C)c1
IC50 (PBLUC_HILL_SLOPE 0.992, PBLUC_R_SQUARED 0.815, read-out: LUCIFERASE INFECTION ASSAY - IC50): > 10 µM
IC90: > 10 µM

S=C(Nc1ccc(Oc2ccccc2)cc1)Nc1cccc2cnccc12
IC50 (PBLUC_HILL_SLOPE 1.05, PBLUC_R_SQUARED 0.612, read-out: LUCIFERASE INFECTION ASSAY - IC50): 4.86 µM
IC90: > 10 µM

Cc1ccccc1-n1nnc(C(=O)Nc2cccc(Br)c2)c1N
IC50 (PBLUC_HILL_SLOPE 0.945, PBLUC_R_SQUARED 0.824, read-out: LUCIFERASE INFECTION ASSAY - IC50): 0.414 µM
IC90: 4.24 µM

Cc1ccc2nc3ccccc3c(N3CCN(C(=O)c4ccccc4)CC3)c2c1
IC50 (PBLUC_HILL_SLOPE 1, PBLUC_R_SQUARED 0.729, read-out: LUCIFERASE INFECTION ASSAY - IC50): 0.384 µM
IC90: 3.42 µM

CCCn1c(=O)n(CC(=O)Nc2ccc(C)c(C)c2)c(=O)c2c1nc(C(F)(F)F)n2CCOC
IC50 (PBLUC_HILL_SLOPE 0.949, PBLUC_R_SQUARED 0.63, read-out: LUCIFERASE INFECTION ASSAY - IC50): 1.57 µM
IC90: > 10 µM

Cc1nn(-c2ccccc2)c2c1C1(C(=O)Nc3ccccc31)N1N=NN(c3ccccc3)C1=N2 (configuration not stated)
IC50 (PBLUC_HILL_SLOPE 0.947, PBLUC_R_SQUARED 0.0755, read-out: LUCIFERASE INFECTION ASSAY - IC50): > 10 µM
IC90: > 10 µM

COc1cc2c(cc1NC(=O)C(C)N1CCC(C(N)=O)CC1)oc1ccccc12 (configuration not stated)
IC50 (PBLUC_HILL_SLOPE 1.06, PBLUC_R_SQUARED 0.647, read-out: LUCIFERASE INFECTION ASSAY - IC50): 1.32 µM
IC90: > 10 µM

CC1(C)CC2CC(C)(CN2C(=O)CSc2nnc(-c3cc(-c4cccs4)nc4ccccc34)o2)C1 (configuration not stated)
IC50 (PBLUC_HILL_SLOPE 1.06, PBLUC_R_SQUARED 0.333, read-out: LUCIFERASE INFECTION ASSAY - IC50): > 10 µM
IC90: > 10 µM

Cc1ccccc1-c1cn2c(-c3cccc(C(=O)N4CCN(C)CC4)c3)cnc2cn1
IC50 (PBLUC_HILL_SLOPE 1.06, PBLUC_R_SQUARED 0.743, read-out: LUCIFERASE INFECTION ASSAY - IC50): 3.76 µM
IC90: > 8.02 µM

COc1ccccc1N1CCN(c2oc(-c3ccccc3Cl)nc2S(=O)(=O)c2ccc(C)cc2)CC1
IC50 (PBLUC_HILL_SLOPE 1.06, PBLUC_R_SQUARED 0.3, read-out: LUCIFERASE INFECTION ASSAY - IC50): > 10 µM
IC90: > 10 µM

Cc1csc(SCC(=O)c2cc(C)n(-c3ccccc3)c2C)n1
IC50 (PBLUC_HILL_SLOPE 0.985, PBLUC_R_SQUARED 0.172, read-out: LUCIFERASE INFECTION ASSAY - IC50): 0.0235 µM
IC90: 0.219 µM

Cc1cc(NC(=O)N2CCN(Cc3sc4ccccc4c3Cl)CC2)no1
IC50 (PBLUC_HILL_SLOPE 1.04, PBLUC_R_SQUARED 0.858, read-out: LUCIFERASE INFECTION ASSAY - IC50): 0.141 µM
IC90: 1.17 µM

CS(=O)(=O)N1CCCc2cc(C(=O)Nc3[nH]nc4ccccc34)ccc21
IC50 (PBLUC_HILL_SLOPE 1.05, PBLUC_R_SQUARED 0.487, read-out: LUCIFERASE INFECTION ASSAY - IC50): 4.21 µM
IC90: > 10 µM

Clc1ccc(-c2csc(-c3nnc4n3-c3ccccc3SC4)n2)s1
IC50 [1]: 6.32 µM
IC90: > 10 µM

CN1CCN(c2ccccc2NC(=O)c2cccc(Oc3ccccc3)c2)CC1
IC50 (PBLUC_HILL_SLOPE 1.09, PBLUC_R_SQUARED 0.715, read-out: LUCIFERASE INFECTION ASSAY - IC50): 0.704 µM
IC90: 5.25 µM

CC1CC(C)CN(C(=O)CN2CCN(CC(=O)Nc3ccc(N4CCCCCC4)cc3)CC2)C1 (configuration not stated)
IC50 (PBLUC_HILL_SLOPE 1.09, PBLUC_R_SQUARED 0.619, read-out: LUCIFERASE INFECTION ASSAY - IC50): 3.56 µM
IC90: > 10 µM

S=c1sc(Nc2ccc(Oc3ccccc3)cc2)nn1CN1CCN(c2ncccn2)CC1
IC50 (PBLUC_HILL_SLOPE 0.972, PBLUC_R_SQUARED 0.697, read-out: LUCIFERASE INFECTION ASSAY - IC50): 3.61 µM
IC90: > 10 µM

CCn1c(NC(=O)c2csc(Br)c2)nc2ccccc21
IC50 (PBLUC_HILL_SLOPE 0.956, PBLUC_R_SQUARED 0.162, read-out: LUCIFERASE INFECTION ASSAY - IC50): 5.44 µM
IC90: > 10 µM

Cc1ccsc1C(O)c1nnc(N2CCCCC2)s1 (configuration not stated)
IC50 (PBLUC_HILL_SLOPE 1.05, PBLUC_R_SQUARED 0.691, read-out: LUCIFERASE INFECTION ASSAY - IC50): 0.794 µM
IC90: 6.49 µM

CC(NC(C)c1ccc(Cl)cc1)C(=O)Nc1sccc1C(N)=O (configuration not stated)
IC50 (PBLUC_HILL_SLOPE 1.06, PBLUC_R_SQUARED 0.69, read-out: LUCIFERASE INFECTION ASSAY - IC50): 2.14 µM
IC90: > 10 µM

C=C1SC(Nc2cc(C)cc(C)c2)=NC1(C)C
IC50 (PBLUC_HILL_SLOPE 0.95, PBLUC_R_SQUARED 0.559, read-out: LUCIFERASE INFECTION ASSAY - IC50): > 13.4 µM
IC90: > 13.4 µM

OC(c1ccc(Nc2nc3ccccc3s2)cc1)(C(F)(F)F)C(F)(F)F
IC50 (PBLUC_HILL_SLOPE 1.04, 1.87, PBLUC_R_SQUARED 0.121, 0.671, read-out: LUCIFERASE INFECTION ASSAY - IC50): 5.01 µM
IC90: 9.74 µM

O=C(CCOc1ccc(F)cc1)Nc1cc(Cl)cc(Cl)c1
IC50 (PBLUC_HILL_SLOPE 0.967, PBLUC_R_SQUARED 0.399, read-out: LUCIFERASE INFECTION ASSAY - IC50): > 10.1 µM
IC90: > 10.1 µM

Cc1ccc(S(=O)(=O)N2Cc3ccccc3C(C)CC23CCCCC3)cc1 (configuration not stated)
IC50 (PBLUC_HILL_SLOPE 1.1, PBLUC_R_SQUARED 0.205, read-out: LUCIFERASE INFECTION ASSAY - IC50): > 8.6 µM
IC90: > 8.6 µM

Cn1c(Oc2cccc3c2OC(C)(C)C3)c(C#N)c(=O)n(C)c1=O
IC50 (PBLUC_HILL_SLOPE 0.981, PBLUC_R_SQUARED 0.556, read-out: LUCIFERASE INFECTION ASSAY - IC50): 0.02 µM
IC90: 0.188 µM

Cc1cc(C(=O)CN(C)S(=O)(=O)c2cccs2)c(C)n1-c1ccccn1
IC50 (PBLUC_HILL_SLOPE 0.948, PBLUC_R_SQUARED 0.586, read-out: LUCIFERASE INFECTION ASSAY - IC50): 2.02 µM
IC90: > 10 µM

O=C(Nc1ccc(F)cc1)Nc1cnn(-c2ccc(Cl)cc2)c1C(F)(F)F
IC50 (PBLUC_HILL_SLOPE 1.06, PBLUC_R_SQUARED 0.652, read-out: LUCIFERASE INFECTION ASSAY - IC50): 0.266 µM
IC90: 2.1 µM

CC(=O)N1CCN(C(=O)CCC(=O)Nc2nc3ccccc3s2)CC1
IC50 (PBLUC_HILL_SLOPE 1.05, PBLUC_R_SQUARED 0.239, read-out: LUCIFERASE INFECTION ASSAY - IC50): > 10 µM
IC90: > 10 µM

CN(c1ccccc1)c1nnc(C(O)c2ccc3ccccc3c2)s1 (configuration not stated)
IC50 (PBLUC_HILL_SLOPE 0.974, PBLUC_R_SQUARED 0.604, read-out: LUCIFERASE INFECTION ASSAY - IC50): 3.52 µM
IC90: > 10 µM

Cc1ccc(/C=C/C(=O)NC2=NCCS2)c(Br)c1
IC50 (PBLUC_HILL_SLOPE 0.976, PBLUC_R_SQUARED 0.447, read-out: LUCIFERASE INFECTION ASSAY - IC50): 3.48 µM
IC90: > 10 µM

O=C(COc1ccc2[nH]c3ccccc3c(=O)c2c1)Nc1ccccc1Cc1ccccc1
IC50 (PBLUC_HILL_SLOPE 1.04, PBLUC_R_SQUARED 0.893, read-out: LUCIFERASE INFECTION ASSAY - IC50): 0.0133 µM
IC90: 0.11 µM

OC(CNC1CCN(Cc2ccccc2)CC1)COc1ccc(OC(F)(F)F)cc1 (configuration not stated)
IC50 (PBLUC_HILL_SLOPE 0.955, PBLUC_R_SQUARED 0.217, read-out: LUCIFERASE INFECTION ASSAY - IC50): > 7.77 µM
IC90: > 7.77 µM

— ChEMBL document CHEMBL4483862, “Open-source discovery of chemical leads for next-generation chemoprotective antimalarials” (2018)
